These results are taken from ChEMBL document CHEMBL1201862, “PubChem BioAssay data set” (2004).

As a reminder, the Ki is a dissociation constant, usually derived from enzyme kinetics or from competition with a known ligand. For orientation: AC50 means the midpoint of the concentration-response curve, whichever way the signal moves.

The source made the active and inactive calls.

Test [1] addresses Ribosomal protein S6 kinase alpha-3 (Homo sapiens, UniProt P51812). The class given is functional.
For test [2], the target named is Vascular endothelial growth factor receptor 2 (Homo sapiens, UniProt P35968). The class given is functional.
The target in test [3] is cAMP-dependent protein kinase catalytic subunit alpha (Homo sapiens, UniProt P17612). The class given is functional.
In test [4] the target is Receptor-type tyrosine-protein kinase FLT3 (Homo sapiens, UniProt P36888). The test is classed as functional.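 Note: FLT3 was tested as one member of a kinome-wide kinase panel.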
Test [5] has as its target Tyrosine-protein kinase ABL1 (Homo sapiens, UniProt P00519). The class given is functional.
Test [6] deals with Hepatocyte growth factor receptor (Homo sapiens, UniProt P08581). The test is classed as functional.
Test [7] has as its target Glycogen synthase kinase-3 alpha (Homo sapiens, UniProt P49840). The test is classed as functional.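 Note: GSK3A result taken from a broad kinome-wide kinase panel.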
The target of a further test is Aurora kinase A (Homo sapiens, UniProt O14965). The test is classed as functional.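 Note: value from the Navigating the Kinome kinase panel profiling, panel entry STK6.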
Sequence of Aurora kinase A (O14965 whole entry): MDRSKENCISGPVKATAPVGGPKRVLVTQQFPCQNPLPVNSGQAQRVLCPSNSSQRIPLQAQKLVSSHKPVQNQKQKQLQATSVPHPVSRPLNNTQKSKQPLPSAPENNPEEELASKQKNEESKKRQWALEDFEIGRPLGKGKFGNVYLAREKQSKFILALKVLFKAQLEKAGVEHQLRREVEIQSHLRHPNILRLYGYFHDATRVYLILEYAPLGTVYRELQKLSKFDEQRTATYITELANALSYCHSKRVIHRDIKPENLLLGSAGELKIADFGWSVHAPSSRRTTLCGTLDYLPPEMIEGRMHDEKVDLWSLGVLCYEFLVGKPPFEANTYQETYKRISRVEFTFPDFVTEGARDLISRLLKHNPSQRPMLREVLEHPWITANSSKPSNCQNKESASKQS
Test [8] deals with Tyrosine-protein kinase Lck (Homo sapiens, UniProt P06239). The test is classed as functional.
Sequence of Tyrosine-protein kinase Lck (P06239 whole entry): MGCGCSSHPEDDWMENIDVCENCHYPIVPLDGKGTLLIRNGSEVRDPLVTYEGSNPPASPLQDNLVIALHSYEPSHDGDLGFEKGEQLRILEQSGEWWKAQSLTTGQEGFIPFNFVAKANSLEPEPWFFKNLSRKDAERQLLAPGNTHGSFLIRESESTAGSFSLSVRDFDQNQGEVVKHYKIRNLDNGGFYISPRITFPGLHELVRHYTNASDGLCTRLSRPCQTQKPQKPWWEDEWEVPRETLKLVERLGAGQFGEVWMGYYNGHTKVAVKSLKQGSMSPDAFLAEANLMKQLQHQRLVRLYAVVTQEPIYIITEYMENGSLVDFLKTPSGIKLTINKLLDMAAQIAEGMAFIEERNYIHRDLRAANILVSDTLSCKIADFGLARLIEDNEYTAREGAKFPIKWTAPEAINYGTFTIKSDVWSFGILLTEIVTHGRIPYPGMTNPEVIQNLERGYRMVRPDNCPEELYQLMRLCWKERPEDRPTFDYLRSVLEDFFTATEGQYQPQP
For test [9], the target named is Tyrosine-protein kinase JAK2 (Homo sapiens, UniProt O60674). The test is classed as functional.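 Note: JAK2 tested as one member of a kinase panel.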
Test [10] deals with Vascular endothelial growth factor receptor 1 (Homo sapiens, UniProt P17948). The test is classed as functional.
Sequence of Vascular endothelial growth factor receptor 1 (P17948 whole entry): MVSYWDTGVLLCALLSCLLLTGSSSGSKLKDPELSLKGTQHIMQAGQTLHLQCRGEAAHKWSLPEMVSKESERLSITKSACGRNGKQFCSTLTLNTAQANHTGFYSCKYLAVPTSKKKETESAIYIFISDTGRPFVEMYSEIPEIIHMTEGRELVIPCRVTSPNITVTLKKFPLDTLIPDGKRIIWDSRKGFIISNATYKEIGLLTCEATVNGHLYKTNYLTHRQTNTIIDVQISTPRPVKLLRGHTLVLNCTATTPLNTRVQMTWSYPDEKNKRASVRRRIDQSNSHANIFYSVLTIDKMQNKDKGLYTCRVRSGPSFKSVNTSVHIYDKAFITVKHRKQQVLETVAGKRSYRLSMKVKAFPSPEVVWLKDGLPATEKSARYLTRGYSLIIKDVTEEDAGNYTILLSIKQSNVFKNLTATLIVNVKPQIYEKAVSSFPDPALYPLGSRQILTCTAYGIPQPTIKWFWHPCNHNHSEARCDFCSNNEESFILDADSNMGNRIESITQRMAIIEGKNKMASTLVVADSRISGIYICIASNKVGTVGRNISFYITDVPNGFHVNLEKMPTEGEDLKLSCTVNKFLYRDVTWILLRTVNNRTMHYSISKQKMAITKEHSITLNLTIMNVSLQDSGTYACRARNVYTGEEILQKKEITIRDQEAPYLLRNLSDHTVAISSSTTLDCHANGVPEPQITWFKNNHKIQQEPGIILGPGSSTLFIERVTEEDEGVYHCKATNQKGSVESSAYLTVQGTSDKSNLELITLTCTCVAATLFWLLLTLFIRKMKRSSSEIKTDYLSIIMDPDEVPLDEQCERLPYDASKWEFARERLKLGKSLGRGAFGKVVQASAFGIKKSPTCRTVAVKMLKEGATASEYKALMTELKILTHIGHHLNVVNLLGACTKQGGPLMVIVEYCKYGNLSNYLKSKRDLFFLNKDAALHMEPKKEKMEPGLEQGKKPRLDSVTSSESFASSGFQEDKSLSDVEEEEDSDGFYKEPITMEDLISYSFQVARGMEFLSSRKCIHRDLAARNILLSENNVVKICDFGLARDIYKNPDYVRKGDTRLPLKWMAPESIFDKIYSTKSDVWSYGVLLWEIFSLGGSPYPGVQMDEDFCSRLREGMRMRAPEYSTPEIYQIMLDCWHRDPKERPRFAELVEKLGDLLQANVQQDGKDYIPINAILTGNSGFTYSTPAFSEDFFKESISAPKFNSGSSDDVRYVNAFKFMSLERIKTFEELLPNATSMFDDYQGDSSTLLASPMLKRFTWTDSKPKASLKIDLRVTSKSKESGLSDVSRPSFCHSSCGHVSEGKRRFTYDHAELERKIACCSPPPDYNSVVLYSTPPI
The target of test [11] is Cyclin-dependent kinase 5 (Homo sapiens, UniProt Q00535). The test is classed as functional.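 Note: CDK5 measured as one member of a kinase profiling panel.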
Sequence of Cyclin-dependent kinase 5 (Q00535 whole entry): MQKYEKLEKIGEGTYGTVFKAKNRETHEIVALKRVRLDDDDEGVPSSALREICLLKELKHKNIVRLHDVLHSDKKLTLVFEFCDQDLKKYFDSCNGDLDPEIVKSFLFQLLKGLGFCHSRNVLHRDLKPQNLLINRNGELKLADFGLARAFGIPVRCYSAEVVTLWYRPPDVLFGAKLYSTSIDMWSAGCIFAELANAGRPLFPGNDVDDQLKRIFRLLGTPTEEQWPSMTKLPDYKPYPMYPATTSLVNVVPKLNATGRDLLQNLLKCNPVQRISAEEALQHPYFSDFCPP
The target in test [12] is Rho-associated protein kinase 1 (Homo sapiens, UniProt Q13464). The class given is functional.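 Note: measured within a broad kinome-wide panel profiling many kinases.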
The target of test [13] is High affinity nerve growth factor receptor (Homo sapiens, UniProt P04629). The class given is functional.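 Note: NTRK1 tested as one member of a kinome-wide profiling panel.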
The target in test [14] is Dual specificity tyrosine-phosphorylation-regulated kinase 1A (Homo sapiens, UniProt Q13627). The class given is functional.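 Note: measured against DYRK1A as one member of a broad kinome profiling panel.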
Test [15] deals with Serine/threonine-protein kinase Nek2 (Homo sapiens, UniProt P51955). The class given is functional.
In another test the target is LIM domain kinase 1 (Homo sapiens, UniProt P53667). Nature of the test: Navigating the Kinome. Panel member name: LIMK1. The test is classed as functional.
For test [16], the target named is 5'-AMP-activated protein kinase catalytic subunit alpha-1 (Homo sapiens, UniProt Q13131). The test is classed as functional.
Test [17] deals with Macrophage colony-stimulating factor 1 receptor (Homo sapiens, UniProt P07333). The test is classed as functional.
Test [18] has as its target Insulin-like growth factor 1 receptor (Homo sapiens, UniProt P08069). The test is described as follows: Navigating the Kinome. Panel member name: IGF1R. The class given is functional.
A further test addresses Aurora kinase B (Homo sapiens, UniProt Q96GD4). The test is classed as functional.
For test [19], the target named is Tyrosine-protein kinase Fyn (Homo sapiens, UniProt P06241). The test is classed as functional.
Test [20] deals with Mitogen-activated protein kinase 9 (Homo sapiens, UniProt P45984). The class given is functional.
Sequence of Mitogen-activated protein kinase 9 (P45984 whole entry): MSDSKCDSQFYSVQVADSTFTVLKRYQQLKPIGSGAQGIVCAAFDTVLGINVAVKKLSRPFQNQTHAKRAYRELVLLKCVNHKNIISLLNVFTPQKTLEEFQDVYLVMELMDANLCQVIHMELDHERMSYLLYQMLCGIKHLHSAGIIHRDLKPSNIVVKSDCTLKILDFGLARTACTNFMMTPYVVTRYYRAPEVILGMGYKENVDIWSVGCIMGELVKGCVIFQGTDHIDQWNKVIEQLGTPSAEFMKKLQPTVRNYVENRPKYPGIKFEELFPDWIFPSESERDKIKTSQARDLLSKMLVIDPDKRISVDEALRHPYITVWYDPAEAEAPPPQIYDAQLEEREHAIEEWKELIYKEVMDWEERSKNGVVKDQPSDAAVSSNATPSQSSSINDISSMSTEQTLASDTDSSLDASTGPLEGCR
For test [21], the target named is Serine/threonine-protein kinase PAK 4 (Homo sapiens, UniProt O96013). The test is classed as functional.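 Note: value obtained within a kinome profiling panel in which PAK4 was one of the panel members.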
The target in test [22] is Serine/threonine-protein kinase Chk1 (Homo sapiens, UniProt O14757). The class given is functional.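 Note: measured as one member of a kinome-wide kinase profiling panel.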
Sequence of Serine/threonine-protein kinase Chk1 (O14757 whole entry): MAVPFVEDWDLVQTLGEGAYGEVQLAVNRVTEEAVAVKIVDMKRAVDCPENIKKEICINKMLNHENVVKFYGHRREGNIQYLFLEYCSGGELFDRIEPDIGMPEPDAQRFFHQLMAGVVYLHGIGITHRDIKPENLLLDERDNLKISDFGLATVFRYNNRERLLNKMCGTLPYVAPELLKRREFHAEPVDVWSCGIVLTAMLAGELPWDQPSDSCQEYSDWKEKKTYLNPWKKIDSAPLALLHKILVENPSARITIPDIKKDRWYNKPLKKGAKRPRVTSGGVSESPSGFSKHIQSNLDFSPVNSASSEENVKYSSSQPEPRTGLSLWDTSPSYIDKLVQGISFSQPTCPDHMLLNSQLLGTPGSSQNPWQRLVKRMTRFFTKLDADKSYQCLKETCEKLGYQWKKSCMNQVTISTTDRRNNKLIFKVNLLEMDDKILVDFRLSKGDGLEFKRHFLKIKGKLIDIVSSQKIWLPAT
Test [23] deals with Mitogen-activated protein kinase 8 (Homo sapiens, UniProt P45983). The test is classed as functional.
In test [24] the target is Fibroblast growth factor receptor 1 (Homo sapiens, UniProt P11362). The test is classed as functional.
In test [25] the target is T1, Histone-lysine N-methyltransferase NSD2 (Homo sapiens, UniProt O96028).
T1 sequence (O96028 whole entry): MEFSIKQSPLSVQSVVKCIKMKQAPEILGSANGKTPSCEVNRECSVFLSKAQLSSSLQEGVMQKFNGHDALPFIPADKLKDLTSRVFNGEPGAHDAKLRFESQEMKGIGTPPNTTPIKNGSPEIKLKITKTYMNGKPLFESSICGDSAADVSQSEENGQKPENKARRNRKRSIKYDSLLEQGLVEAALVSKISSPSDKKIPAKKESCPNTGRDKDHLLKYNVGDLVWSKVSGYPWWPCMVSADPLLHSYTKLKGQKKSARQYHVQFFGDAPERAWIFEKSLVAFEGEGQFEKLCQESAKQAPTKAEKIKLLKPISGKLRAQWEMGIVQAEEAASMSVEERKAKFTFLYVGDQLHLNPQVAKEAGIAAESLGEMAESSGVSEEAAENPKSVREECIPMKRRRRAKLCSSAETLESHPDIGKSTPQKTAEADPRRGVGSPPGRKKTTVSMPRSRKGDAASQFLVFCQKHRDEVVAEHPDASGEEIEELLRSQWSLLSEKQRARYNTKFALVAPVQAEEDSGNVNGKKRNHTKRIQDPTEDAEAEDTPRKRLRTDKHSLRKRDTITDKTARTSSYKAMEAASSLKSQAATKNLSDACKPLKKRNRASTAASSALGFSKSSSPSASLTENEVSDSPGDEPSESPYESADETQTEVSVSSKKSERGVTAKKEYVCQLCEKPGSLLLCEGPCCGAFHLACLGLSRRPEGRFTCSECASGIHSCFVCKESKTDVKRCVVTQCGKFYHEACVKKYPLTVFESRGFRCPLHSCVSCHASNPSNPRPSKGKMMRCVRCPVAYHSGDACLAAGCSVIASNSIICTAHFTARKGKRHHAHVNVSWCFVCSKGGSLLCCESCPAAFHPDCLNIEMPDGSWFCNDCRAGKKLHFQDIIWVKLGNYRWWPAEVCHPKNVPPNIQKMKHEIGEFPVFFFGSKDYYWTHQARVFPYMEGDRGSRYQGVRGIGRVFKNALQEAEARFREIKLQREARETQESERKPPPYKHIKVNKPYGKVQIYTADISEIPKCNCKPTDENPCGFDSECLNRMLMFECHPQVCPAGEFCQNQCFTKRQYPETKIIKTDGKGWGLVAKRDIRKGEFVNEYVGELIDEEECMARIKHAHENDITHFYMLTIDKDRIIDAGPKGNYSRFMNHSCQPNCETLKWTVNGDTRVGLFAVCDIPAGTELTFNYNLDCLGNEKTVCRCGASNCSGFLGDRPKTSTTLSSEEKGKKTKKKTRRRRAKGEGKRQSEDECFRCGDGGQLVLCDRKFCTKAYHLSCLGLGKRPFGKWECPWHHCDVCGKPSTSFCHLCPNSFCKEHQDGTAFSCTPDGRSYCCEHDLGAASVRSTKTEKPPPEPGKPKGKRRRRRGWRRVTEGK
The test is classed as biochemical.

Sequence of Aurora kinase B (Q96GD4 whole entry): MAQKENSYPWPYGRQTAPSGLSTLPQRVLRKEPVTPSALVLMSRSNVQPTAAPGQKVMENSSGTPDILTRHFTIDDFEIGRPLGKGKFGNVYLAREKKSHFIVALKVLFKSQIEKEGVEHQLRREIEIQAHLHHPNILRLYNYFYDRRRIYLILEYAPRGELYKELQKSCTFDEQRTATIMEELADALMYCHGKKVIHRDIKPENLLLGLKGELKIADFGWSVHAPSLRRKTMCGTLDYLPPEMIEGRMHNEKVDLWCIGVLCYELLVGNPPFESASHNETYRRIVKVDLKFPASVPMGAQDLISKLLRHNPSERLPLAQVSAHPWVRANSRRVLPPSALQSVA
Sequence of Tyrosine-protein kinase ABL1 (P00519 whole entry): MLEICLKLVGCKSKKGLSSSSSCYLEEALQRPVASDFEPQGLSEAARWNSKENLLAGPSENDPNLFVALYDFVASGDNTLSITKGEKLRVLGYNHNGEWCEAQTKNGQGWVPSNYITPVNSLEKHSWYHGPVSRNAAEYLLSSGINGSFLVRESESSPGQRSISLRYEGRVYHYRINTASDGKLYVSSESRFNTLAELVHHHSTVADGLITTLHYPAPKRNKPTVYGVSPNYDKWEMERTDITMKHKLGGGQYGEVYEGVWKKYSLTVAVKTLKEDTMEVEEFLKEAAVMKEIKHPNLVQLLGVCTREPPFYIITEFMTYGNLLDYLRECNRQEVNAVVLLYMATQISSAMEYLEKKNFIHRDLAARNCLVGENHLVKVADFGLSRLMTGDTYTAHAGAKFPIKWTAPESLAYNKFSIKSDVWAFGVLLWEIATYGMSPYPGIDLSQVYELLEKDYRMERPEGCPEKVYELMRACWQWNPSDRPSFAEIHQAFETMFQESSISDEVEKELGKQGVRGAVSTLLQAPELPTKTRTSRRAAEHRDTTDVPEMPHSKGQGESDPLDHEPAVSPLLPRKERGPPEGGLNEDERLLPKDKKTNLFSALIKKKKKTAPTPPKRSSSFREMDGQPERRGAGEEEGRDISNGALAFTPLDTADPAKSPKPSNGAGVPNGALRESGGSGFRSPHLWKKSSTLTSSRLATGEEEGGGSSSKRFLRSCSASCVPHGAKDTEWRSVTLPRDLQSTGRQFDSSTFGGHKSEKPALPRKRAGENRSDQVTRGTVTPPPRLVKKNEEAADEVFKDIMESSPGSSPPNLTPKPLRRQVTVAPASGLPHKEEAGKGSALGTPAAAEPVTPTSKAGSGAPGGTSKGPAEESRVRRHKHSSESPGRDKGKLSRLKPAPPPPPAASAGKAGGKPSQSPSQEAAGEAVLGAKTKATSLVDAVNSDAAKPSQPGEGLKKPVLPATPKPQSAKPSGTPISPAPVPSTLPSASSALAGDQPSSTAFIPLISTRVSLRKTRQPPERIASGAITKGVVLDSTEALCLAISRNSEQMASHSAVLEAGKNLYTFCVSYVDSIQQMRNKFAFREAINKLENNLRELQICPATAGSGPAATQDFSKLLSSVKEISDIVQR

With `Cc1cc(=O)[nH]nc1-c1ccc(NC(=O)Nc2cc(C(F)(F)F)ccc2F)c(Cl)c1`, the Ki is > 3.98 µM (inactive) in test [1]; 0.316 µM (active) in test [2]; > 1.26 µM (inactive) in test [3]; > 3.16 µM (inactive) in test [4]; > 2.51 µM (inactive) in test [5]; > 2.51 µM (inactive) in test [6]. Besides, the Ki in [7] was > 3.98 µM (inactive); on Aurora kinase A, > 1.58 µM (inactive); in test [8] it was > 6.31 µM (inactive); in test [9], > 2.51 µM (inactive); in [10], > 3.98 µM (inactive); in [11], > 3.16 µM (inactive). In addition, the Ki is > 3.98 µM (inactive) in [12]; 0.0631 µM (active) in test [13]; > 2 µM (inactive) in test [14]; > 3.16 µM (inactive) in test [15]; > 3.16 µM (inactive) on LIM domain kinase 1; > 3.16 µM (inactive) in [16]. Besides, the Ki in [17] is > 2.51 µM (inactive); in [18], > 2.51 µM (inactive); on Aurora kinase B, > 3.98 µM (inactive); in test [19], > 6.31 µM (inactive); in test [20], > 3.98 µM (inactive); in test [21], > 5.01 µM (inactive). Moreover, the Ki is > 3.16 µM (inactive) in test [22], > 5.01 µM (inactive) in [23] and > 3.98 µM (inactive) in test [24].

Turning to `CCOC(=O)c1cn(-c2ccc(O)cc2C)c2cc(-c3ccncc3)ccc2c1=O`, the Ki is > 7.94 µM (inactive) in [1]; > 7.94 µM (inactive) in test [2]; 1.26 µM (active) in [3]; > 2.51 µM (inactive) in [4]; > 0.631 µM (inactive) in [5]; > 3.16 µM (inactive) in test [6]. In addition, the inhibition constant (Ki) was 7.94 µM (active) in test [7]; > 6.31 µM (inactive) on Aurora kinase A; > 2.51 µM (inactive) in test [8]; > 1.58 µM (inactive) in [9]; > 0.398 µM (inactive) in test [10]; 5.01 µM (active) in test [11]. In addition, the Ki is 0.158 µM (active) in test [12]; > 2.51 µM (inactive) in test [13]; > 6.31 µM (inactive) in [14]; > 10 µM (inactive) in test [15]; > 10 µM (inactive) at LIM domain kinase 1; > 10 µM (inactive) in [16]. Also, the Ki in [17] is > 2.51 µM (inactive); in [18] it was > 1 µM (inactive); at Aurora kinase B it was > 6.31 µM (inactive); in test [19], > 0.794 µM (inactive); in test [20], > 3.98 µM (inactive); in test [21] it was > 5.01 µM (inactive). Moreover, the Ki is > 7.94 µM (inactive) in test [22], > 3.16 µM (inactive) in test [23] and > 5.01 µM (inactive) in [24].

Turning to `O=C1C=C(NCc2ccccc2)c2ccccc2C1=O`, the AC50 in test [25] was 2.16 µM (active).

For `O=C(O)c1[nH]c2ccccc2c1C(c1cc(Cl)cc([N+](=O)[O-])c1O)c1c(C(=O)O)[nH]c2ccccc12`, the AC50 in [25] was 16.6 µM (active).
